The values below come from US11771673B2, “On site generated performic acid compositions for teat treatment” (ECOLAB USA INC., priority 2018, dated 2023).

The nature of this data set: Accelerated stability of hydrogen peroxide premixes with different self-indicators under 40° C. The data set is classed as physicochemical. To be noted: approximately 13 weeks. As for the experimental part: The hydrogen peroxide premixes were prepared according to Table 10 with differing types of FD&C dyes. The compositions were stored in a 40° C. oven for approximately 13 weeks. Their stability, as evaluated by the presence of hydrogen peroxide, was compared and is depicted in Table 11.

Turning to `O=S(=O)([O-])c1ccc(N=Nc2c(O)ccc3cc(S(=O)(=O)[O-])ccc23)cc1.[Na+].[Na+]` [FD&C yellow 6], the “stability of dye in hydrogen peroxide premix” value is “significantly more stable than FD&C yellow 5”.
